The subject of the experiment is ViroSTEM (mesenchymal stem cells into which measles virus has been introduced). The experiment is described as follows: Viability of ViroSTEM cold-stored in 30% autologous serum-containing physiological saline treated with aspirin. It counts as cell-based, human. On the procedure: While ViroSTEM, which is mesenchymal stem cells into which measles virus has been introduced, was cold-stored in physiological saline containing aspirin and 30% autologous serum for 5 days, it was treated with aspirin at a concentration of 10 μg/ml to 100 μg/ml.
The period of time during which ViroSTEM cold-stored in physiological saline containing 50 μg/ml aspirin and 30% autologous serum was maintained as described above increased to 80 hours, indicating the stability of the virus in ViroSTEM cold-stored for 80 hours. After cold storage of ViroSTEM for 80 hours, the stem cells were cultured and then observed under a fluorescence microscope.

Turning to `CC(=O)Oc1ccccc1C(=O)O` [aspirin], the viability – broadly, a read-out of living cells in per cent, often relative to untreated cells – at 50 µg/mL (Homo sapiens, Mesenchymal stem cells, 72 h, aspirin 50 μg/ml, cold storage 3 days in physiological saline containing 30% autologous serum, without aspirin about 28.6%, read-out: cell viability of measles virus-infected stem cell therapeutic agent) is not below 88%. The “most effective concentration of aspirin” value (tested 10 μg/ml to 100 μg/ml in vehicle containing autologous serum) was determined as 50 µg/mL.

The record behind these values is US20230016479A1, “METHOD FOR PREPARING MESENCHYMAL STEM CELLS HAVING IMPROVED VIABILITY THROUGH ANTI-CANCER VIRUS INTRODUCTION” (priority 2019, published 2023).
